# Where “and” joins values, the source holds several entries; their conditions need not be identical. Identical values can stand only once. Counter-ions that a name gives are not always drawn.
# How the values were obtained:
# [1] = Liver function test (LFT) and lipid profile of serum after oral extract feeding; format: in vivo, Male Wistar rats; details: rat serum after two weeks oral feeding; mean ± SEM, n = 6
# Text: Rats were housed in polycarbonate cages, containing hardwood chip bedding. A standard pallet diet and water was made available ad-libitum. A 12 hr light/dark cycle was maintained throughout tbe study. After 14 days of acclimatization, the rats were randomized, and divided to 6 animals in each group: control, test, and positive control (Trolox). Oral doses of extracts were given after every alternate day and their physical status and weight changes were monitored daily. Control group has received an equal volume of normal saline for the same period of time. The experiment was terminated after two weeks of feeding. Under mild anesthetic conditions, blood was drawn via heart puncture. Blood was collected in clot activator plastic tubes, and allowed to clot for 30-40 minutes. Serum was separated by centrifugation and then stored at -20° C. till antioxidant status and other biochemical analysis were carried out. LPT and Lipid Profile The diagnostic facilities of […]), University of Karachi, were used for the biochemical analysis of serum samples. Lipid profile includes cholesterol, triglycerides, high density lipoproteins (HDL), low density lipoproteins (LDL), and LPT including bilirubin (total and direct), enzymes such as alanine aminotransferase (ALT), alkaline phosphatase (ALP), and gamma […] (GGT), were measured. These assays were performed by fully automated chemistry analyzer (Hitachi 902, Roche Diagnostics, Japan) with standardized kits, calibrators, and controls. Total lipid was estimated manually by calorimetric method of phosphovanilline on a photometer (Clinicon 4010, Boehringer […], Germany).
# [2] = Trolox Equivalents Antioxidant Capacity (TEAC) assay; format: biochemical; details: for TEAC (Trolox equivalent antioxidant capacity) ± SEM: compounds 10-1000 μM, ABTS 0.5 mM, 734 nm, 6 min, ratio of slopes, no unit, n = 3; for antioxidant activity (in words): TEAC measurements
# Description: Trolox Equivalents Antioxidant Capacity (TEAC) Assay of Compounds (1-11)
# Pure compounds and standards (conc. Range 10-1000 μM) were reacted with the fixed concentration of ABTS (0.5 mM) according to the reported method. The decrease in absorbance at 734 nm was recorded 6 min after the addition of pro-formed ABTS radical solution. Standards including Trolox, quercetin, kaempferol and ascorbic acid were used for the comparison of structure-activity relationship with the isolated compounds. The calculation of TEAC values was obtained by plotting the graphs between various concentrations of compounds and percent radical scavenging activity. Slope (m) was then calculated by using the linear regression (y=mx+c) of the plotted curve. Ratio of the value of slope of Trolox with that of isolated compounds was calculated to get TEAC value as follows; TEACCompound=Slope of Trolox/Slope of compound (3)
# The TEAC assay was used to assess the power of reduction of total amount of ABTS^•+ radicals formed during the reaction by bioactive metaboilite. The ABTS is intensely colored and when it reacts with antioxidant the color disappeared. […] In present procedure, the ratio of the slope of concentrations of standard and test compound is taken, therefore TEAC is considered as relative value with no unit. Trolox used as standard antioxidant with TEAC value as 1.
compound,measurement,setting,value
"Cc1c(C)c2c(c(C)c1O)CCC(C)(C(=O)O)O2 (centres unmarked) [Trolox, 6-hydroxy-2,5,7,8-tetramethylchroman-2-carboxylic acid]",ALP,[1],212.54 ± 24.51 U/L
same,ALT/SGPT,[1],45.5 ± 5.49 U/L
same,Chol,[1],56.75 ± 2.07 mg/dL
same,Direct Bilirubin,[1],0.085 ± 0.007 mg/dL
same,GGT,[1],4.25 ± 0.74 U/L
same,HDL-c,[1],55 ± 1.97 mg/dL
same,Indirect Bilirubin,[1],0.43 ± 0.03 mg/dL
same,LDL-c,[1],14.25 ± 0.96 mg/dL
same,TAG,[1],40 ± 1.54 mg/dL
same,Total Bilirubin,[1],0.51 ± 0.02 mg/dL
same,Total Lipid,[1],260 ± 5 mg/dL
same,VLDL,[1],8.5 ± 0.25 mg/dL
same,TEAC (Trolox equivalent antioxidant capacity) ± SEM,[2],1
"COC(=O)CC(O)(CC(=O)OC)C(=O)OC [compound 11, trimethyl citrate]",antioxidant activity (in words),[2],moderate to low antioxidant activity
same,TEAC (Trolox equivalent antioxidant capacity) ± SEM,[2],0.58±0.12
"O=c1c(O)c(-c2ccc(O)c(O)c2)oc2cc(O)cc(O)c12 [Quercetin, reference compound]",TEAC (Trolox equivalent antioxidant capacity) ± SEM,[2],1.07 ± 0.23
same,TEAC (Trolox equivalent antioxidant capacity) ± SEM,[2]; listed as quercetin,1.07±0.23
"O=Cc1ccc(CO)o1 [compound 8, 5-hydroxymethylfurfural]",TEAC (Trolox equivalent antioxidant capacity) ± SEM,[2],1.05±0.24
"O=C(/C=C/c1ccc(O)cc1)O[C@H]1C(Oc2c(-c3ccc(O)c(O)c3)oc3cc(O)cc(O)c3c2=O)O[C@H](CO)[C@@H](O)[C@@H]1O (some centres unmarked) [compound 6, quercetin 3-O-(2-p-coumaroylglucoside)]",TEAC (Trolox equivalent antioxidant capacity) ± SEM,[2],0.36 ± 0.19
"C[C@H]1O[C@@H](Oc2c(-c3ccc(O)cc3)oc3cc(O)cc(O)c3c2=O)[C@@H](O)[C@@H](O)[C@@H]1O [compound 3, kaempferol 3-O-β-D-rhamnoside]",TEAC (Trolox equivalent antioxidant capacity) ± SEM,[2],0.91 ± 0.21
kaempferol 3-O-β-D-glucoside [compound 2],TEAC (Trolox equivalent antioxidant capacity) ± SEM,[2],0.80 ± 0.31
"O=c1c(O[C@@H]2O[C@H](CO)[C@@H](O)[C@H](O)[C@H]2O)c(-c2ccc(O)c(O)c2)oc2cc(O)cc(O)c12 [compound 4, quercetin 3-O-β-D-glucoside]",TEAC (Trolox equivalent antioxidant capacity) ± SEM,[2],0.82±0.23 and 0.82 ± 0.32
"O=c1c(O)c(-c2ccc(O)cc2)oc2cc(O)cc(O)c12 [Kaempferol, reference compound]",TEAC (Trolox equivalent antioxidant capacity) ± SEM,[2],0.97 ± 0.27
same,TEAC (Trolox equivalent antioxidant capacity) ± SEM,[2]; listed as keampferol,0.97
"C[C@H]1O[C@@H](Oc2c(-c3ccc(O)c(O)c3)oc3cc(O)cc(O)c3c2=O)[C@@H](O)[C@@H](O)[C@@H]1O [compound 5, quercetin 3-O-β-D-rhamnoside]",TEAC (Trolox equivalent antioxidant capacity) ± SEM,[2],0.82 ± 0.23
"1,5-dimethyl citrate [compound 10]",antioxidant activity (in words),[2],moderate to low antioxidant activity
same,TEAC (Trolox equivalent antioxidant capacity) ± SEM,[2],0.67±0.31
myricetin 3-O-β-D-xyloside [compound 7],TEAC (Trolox equivalent antioxidant capacity) ± SEM,[2],0.92 ± 0.35
same,TEAC (Trolox equivalent antioxidant capacity) ± SEM,[2]; listed as myricetin,0.92±0.35
"O=C1O[C@H]([C@@H](O)CO)C(O)=C1O [Ascorbic acid, reference compound]",TEAC (Trolox equivalent antioxidant capacity) ± SEM,[2],1.14 ± 0.29
"O=C(O)c1ccc(O)c(O)c1 [compound 9, 3,4-dihydroxybenzoic acid]",TEAC (Trolox equivalent antioxidant capacity) ± SEM,[2],0.95 ± 0.01
"COc1cc(-c2oc3cc(O)cc(O[C@@H]4O[C@H](COC(=O)CC(C)(O)CC(=O)O)[C@@H](O)[C@H](O)[C@H]4O)c3c(=O)c2O)ccc1O (stereo partly drawn) [compound 1, isorhamnetol 5-O-[6″-(3-hydroxy-3-methyl glutarate)] β-D-glucoside]",TEAC (Trolox equivalent antioxidant capacity) ± SEM,[2],0.88 ± 0.21

# — patent US10005809B2, “Bio-active antioxidants from plant foods for nutraceutical product development” (priority 2013, dated 2018)
